Experimental data reported in paper PMC6718736, “Validation of in vitro methods for human cytochrome P450 enzyme induction: Outcome of a multi-laboratory study” (Toxicology in Vitro, 2019).
Like-named read-outs stand apart in the source and are kept apart here.

Columns and labels:
CYP2B6 [1] = assay: CYP2B6 enzyme induction assay in cryopreserved primary human hepatocytes (PHH); format: in vitro ADME; conditions: for Assigned classification CYP2B6: PHH;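 as to Assigned classification CYP2B6: code 1 means positive inducer and 0 means non-inducer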
CYP3A4 [2] = assay: CYP3A4 enzyme induction assay in cryopreserved primary human hepatocytes (PHH); conditions: for Assigned classification CYP3A4: PHH
CYP2B6 [3] = assay: CYP2B6 enzyme induction assay in cryopreserved HepaRG cells (bupropion probe, LC/MS); format: in vitro ADME, human; conditions: for Prediction in vivo inducer: Cmax/F2 >0.5 criterion; for Assigned classification CYP2B6: HepaRG; as to Assigned classification CYP2B6: key: 1=Positive=inducer; 0=Negative=non-inducer
CYP1A2 [4] = assay: CYP1A2 enzyme induction assay in cryopreserved HepaRG cells (phenacetin probe, LC/MS); format: in vitro ADME, human; conditions: for Prediction in vivo inducer: Cmax/F2 >0.5 criterion; for Assigned classification CYP1A2: HepaRG; as to Assigned classification CYP1A2: key: 1=Positive=inducer; 0=Negative=non-inducer
CYP1A2 [5] = assay: CYP1A2 enzyme induction assay in cryopreserved primary human hepatocytes (PHH); format: in vitro ADME; conditions: for Prediction in vivo inducer: Cmax/F2 >0.5 criterion; for Assigned classification CYP1A2: PHH;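 as to Assigned classification CYP1A2: code 1 means positive inducer and 0 means non-inducer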
CYP3A4 [6] = assay: CYP3A4 enzyme induction assay in cryopreserved HepaRG cells (midazolam probe, LC/MS); format: in vitro ADME, human; conditions: for Assigned classification CYP3A4: HepaRG; as to Assigned classification CYP3A4: key: 1=Positive=inducer; 0=Negative=non-inducer
[7] = cited from earlier work
CYP = CYP isoforms induced; ref Abadie et al. (2009), Richert et al. (2010), Preissner et al. (2010), Hoffmann et al. (2014); cited from earlier work
CYP3A4 [8] = conditions: cited from earlier work

SMILES: COc1ccccc1Oc1c(NS(=O)(=O)c2ccc(C(C)(C)C)cc2)nc(-c2ncccn2)nc1OCCO [Bosentan hydrate]
- F2 (CYP2B6 [1]; CYP2B6, PHH): 5.85 µM
- Induction in vitro (CYP2B6 [1]; CYP2B6, PHH): Yes
- Prediction in vivo inducer (CYP2B6 [1]; CYP2B6, PHH): Yes
- Assigned classification CYP2B6 (CYP2B6 [1]; Lab 1, batch 0 6 A): 1
- Assigned classification CYP2B6 (CYP2B6 [1]; Lab 1, batch 4 0 8): 1
- Assigned classification CYP2B6 (CYP2B6 [1]; Lab 1, batch 8 0 8): 1
- Assigned classification CYP2B6 (CYP2B6 [1]; Lab 2, batch 0 6 A): 1
- Assigned classification CYP2B6 (CYP2B6 [1]; Lab 2, batch 4 0 8): 0
- Assigned classification CYP2B6 (CYP2B6 [1]; Lab 2, batch 8 0 8): 1
- Assigned classification CYP2B6 (CYP2B6 [1]; Lab 3, batch 0 6 A): 1
- Assigned classification CYP2B6 (CYP2B6 [1]; Lab 3, batch 4 0 8): 1
- Assigned classification CYP2B6 (CYP2B6 [1]; Lab 3, batch 8 0 8): 1
- F2 (CYP3A4 [2]; CYP3A4, PHH): 0.65 to 1.95 µM
- Induction in vitro (CYP3A4 [2]; CYP3A4, PHH): Yes
- Prediction in vivo inducer (CYP3A4 [2]; CYP3A4, PHH): Yes
- Assigned classification CYP3A4 (CYP3A4 [2]; Lab 1, batch 0 6 A): 1
- Assigned classification CYP3A4 (CYP3A4 [2]; Lab 1, batch 4 0 8): 1
- Assigned classification CYP3A4 (CYP3A4 [2]; Lab 1, batch 8 0 8): 1
- Assigned classification CYP3A4 (CYP3A4 [2]; Lab 2, batch 0 6 A): 1
- Assigned classification CYP3A4 (CYP3A4 [2]; Lab 2, batch 4 0 8): 1
- Assigned classification CYP3A4 (CYP3A4 [2]; Lab 2, batch 8 0 8): 1
- Assigned classification CYP3A4 (CYP3A4 [2]; Lab 3, batch 0 6 A): 1
- Assigned classification CYP3A4 (CYP3A4 [2]; Lab 3, batch 4 0 8): 1
- Assigned classification CYP3A4 (CYP3A4 [2]; Lab 3, batch 8 0 8): 1
- Prediction in vivo inducer (CYP2B6 [3]; CYP2B6, HepaRG cells, listed as Bosentan): Yes
- Prediction in vivo inducer (CYP2B6 [3]; CYP2B6, HepaRG cells, listed as bosentan): predicted as positive inducers
- F2 (CYP2B6 [3]; CYP2B6, HepaRG cells, in vitro concentration producing 2-fold induction): 2.60 to 7.80 µM
- Induction in vitro (CYP2B6 [3]; CYP2B6, HepaRG cells, positive in one batch in each of the three laboratories): Yes
- Assigned classification CYP2B6 (CYP2B6 [3]; Lab 1, batch 20): 1
- Assigned classification CYP2B6 (CYP2B6 [3]; Lab 1, batch 35): 1
- Assigned classification CYP2B6 (CYP2B6 [3]; Lab 1, batch 36): 0
- Assigned classification CYP2B6 (CYP2B6 [3]; Lab 2, batch 20): 1
- Assigned classification CYP2B6 (CYP2B6 [3]; Lab 2, batch 35): 0
- Assigned classification CYP2B6 (CYP2B6 [3]; Lab 2, batch 36): 0
- Assigned classification CYP2B6 (CYP2B6 [3]; Lab 3, batch 20): 0
- Assigned classification CYP2B6 (CYP2B6 [3]; Lab 3, batch 35): 1
- Assigned classification CYP2B6 (CYP2B6 [3]; Lab 3, batch 36): 0
- Prediction in vivo inducer (CYP1A2 [4]; CYP1A2, HepaRG cells, listed as Bosentan): Yes
- Prediction in vivo inducer (CYP1A2 [4]; CYP1A2, HepaRG cells, listed as bosentan): CYP1A2 induction would be expected
- F2 (CYP1A2 [4]; CYP1A2, HepaRG cells, in vitro concentration producing 2-fold induction): 2.60 to 7.80 µM
- Induction in vitro (CYP1A2 [4]; CYP1A2, HepaRG cells, positive in one batch in each of the three laboratories): Yes
- Assigned classification CYP1A2 (CYP1A2 [4]; Lab 1, batch 20): 1
- Assigned classification CYP1A2 (CYP1A2 [4]; Lab 1, batch 35): 1
- Assigned classification CYP1A2 (CYP1A2 [4]; Lab 1, batch 36): 1
- Assigned classification CYP1A2 (CYP1A2 [4]; Lab 2, batch 20): 1
- Assigned classification CYP1A2 (CYP1A2 [4]; Lab 2, batch 35): 1
- Assigned classification CYP1A2 (CYP1A2 [4]; Lab 2, batch 36): 1
- Assigned classification CYP1A2 (CYP1A2 [4]; Lab 3, batch 20): 1
- Assigned classification CYP1A2 (CYP1A2 [4]; Lab 3, batch 35): 1
- Assigned classification CYP1A2 (CYP1A2 [4]; Lab 3, batch 36): 0
- Prediction in vivo inducer (CYP1A2 [5]; CYP1A2, PHH, listed as Bosentan): No
- Prediction in vivo inducer (CYP1A2 [5]; CYP1A2, PHH, listed as bosentan): non-inducers
- Induction in vitro (CYP1A2 [5]; CYP1A2, PHH, positive in one donor in each of the three laboratories): No
- Assigned classification CYP1A2 (CYP1A2 [5]; Lab 1, batch 0 6 A): 0
- Assigned classification CYP1A2 (CYP1A2 [5]; Lab 1, batch 4 0 8): 0
- Assigned classification CYP1A2 (CYP1A2 [5]; Lab 1, batch 8 0 8): 0
- Assigned classification CYP1A2 (CYP1A2 [5]; Lab 2, batch 0 6 A): 0
- Assigned classification CYP1A2 (CYP1A2 [5]; Lab 2, batch 4 0 8): 0
- Assigned classification CYP1A2 (CYP1A2 [5]; Lab 2, batch 8 0 8): 1
- Assigned classification CYP1A2 (CYP1A2 [5]; Lab 3, batch 0 6 A): 1
- Assigned classification CYP1A2 (CYP1A2 [5]; Lab 3, batch 4 0 8): 0
- Assigned classification CYP1A2 (CYP1A2 [5]; Lab 3, batch 8 0 8): 0
- F2 (CYP3A4 [6]; CYP3A4, HepaRG cells): 0.29 µM
- Induction in vitro (CYP3A4 [6]; CYP3A4, HepaRG cells): Yes
- Prediction in vivo inducer (CYP3A4 [6]; CYP3A4, HepaRG cells): Yes
- Assigned classification CYP3A4 (CYP3A4 [6]; Lab 1, batch 20): 1
- Assigned classification CYP3A4 (CYP3A4 [6]; Lab 1, batch 35): 1
- Assigned classification CYP3A4 (CYP3A4 [6]; Lab 1, batch 36): 1
- Assigned classification CYP3A4 (CYP3A4 [6]; Lab 2, batch 20): 1
- Assigned classification CYP3A4 (CYP3A4 [6]; Lab 2, batch 35): 1
- Assigned classification CYP3A4 (CYP3A4 [6]; Lab 2, batch 36): 1
- Assigned classification CYP3A4 (CYP3A4 [6]; Lab 3, batch 20): 1
- Assigned classification CYP3A4 (CYP3A4 [6]; Lab 3, batch 35): 1
- Assigned classification CYP3A4 (CYP3A4 [6]; Lab 3, batch 36): 1
- Cmax ([7]; human in vivo plasma concentration, normal dose): 5.8 µM
- Cmax ([7]; human in vivo, normal dose (Table 10)): 5.8 µM
- CYP induction in vitro (human hepatocytes) (CYP): CYP3A4
- Induction in vivo (CYP3A4 [8]; CYP3A4, human in vivo reference classification (Table 11)): Yes
- CYP induction in vivo literature reference: CYP3A4 (CYP3A4 [8]; human in vivo, CYP named without remark = induced, ref references in the cell, Washington University database, Hoffmann et al. (2014), Pelkonen et al. (2008), Hukkanen et al. (2012)): CYP1A2 NO studies CYP2B6 NO studies CYP 3A4 ([Weber et al., 1999a], [Weber et al., 1999b]; [van Giersbergen et al., 2002a], [van Giersbergen et al., 2002b]; Dingemanse and van Giersbergen, 2004)
